In PMC9571953, “Discovery of New VEGFR-2 Inhibitors: Design, Synthesis, Anti-Proliferative Evaluation, Docking, and MD Simulation Studies” (Molecules, 2022):
One block for each compound: values may come before it.

Tests used:
[1] = system: human tumor necrosis factor alpha (TNF-α); test: In vitro immunomodulatory assay, TNF-α; assay type: cell-based; details: HCT-116 cells
Method: (§1) The immunomodulatory potentialities of congeners 6 and 7 on HCT-116 cells was also assayed. Two well-defined immunity markers, human tumor necrosis factor alpha (TNF-α), and interleukin 6 (IL6), were measured following the treatment with each compound. In addition, dexamethasone was co-assayed as a reference drug. A considerable reduction in both markers was noticed regarding the two compounds (Table 4).

interleukin 6 (IL6) = test: In vitro immunomodulatory assay, IL6; assay type: cell-based; details: HCT-116 cells
Method: as §1

HCT-116 = test: In vitro anti-proliferative activity (MTT); assay type: cell-based; details: Homo sapiens, mean ± S.D. of three experiments, read-out: In Vitro Cytotoxicity IC50 HCT-116
Method: (§2) The latter cells were selected owing to their VEGFR-2 overabundance.
(§3) Was conducted the experiment by the MTT procedure. In-depth discussions have been held in the Supplementary Data. […]
(§4) ✓ In vitro anti-proliferative activity against HepG-2 and HCT-116
(§5) The cells were cultured in RPMI-1640 medium supplemented with 10% fetal bovine serum (FBS), penicillin (100 unit /mL) and streptomycin sulphate (100µg/mL) at 37 °C in a 5% CO2 incubator.
(§6) Then, cells were dropped in 96-well plates at a density of 3-8 × 10^3 cells/well and incubated for two days in a 5% CO2 incubator at 37 °C. Then, the cells were treated with the synthesized compounds and the cell cultures were continued incubated for 24 h. However, Different concentrations of the compound under test (0.0, 5.0, 12.5, 25.0 and 50 mg/ml) were added to the cell monolayer. Then, (3-[4,5-dimethylthiazol-2-yl]- 2,5-diphenyltetrazolium bromide) MTT solution (20 µl, 5mg/mL) was added to each well and incubated for additional 4 h. The formed purple crystals of MTT-formazan were dissolved in 100 µl DMSO each well; the absorbance of each well was measured at 570 nm using a plate reader (EXL 800, USA). All compounds were tested three times. The relative cell viability in percentage was calculated. The results for IC50 values of the active compounds are […]
(§7) The data represented the mean of three independent experiments in triplicate and were expressed as means ± SD. […]

HepG-2 = test: In vitro anti-proliferative activity (MTT); assay type: cell-based; details: Homo sapiens, HepG2, mean ± S.D. of three experiments, read-out: In Vitro Cytotoxicity IC50 HepG-2
Method: as §2, §3, §4, §5, §6, §7

Human VEGFR-2 = Human VEGFR-2 (Homo sapiens, UniProt P35968); test: In vitro VEGFR-2 enzyme inhibition assay (ELISA kit)
Method: The ability of the four synthesized congeners to inhibit the VEGFR-2 enzyme in HCT-116 cells was also evaluated.
✓ Assessment of VEGFR-2 inhibition

VEGFR-2 = details: Reported nicotinamide VEGFR-2 inhibitor, Figure 2; no reference given; cited from earlier work
HCT-116 cells [2] = test: Flow cytometry cell cycle analysis (PI staining); assay type: cell-based; details: HCT-116, 9.3 µM of compound 6, 48 h
Method: It was clear from the obtained results that member 6 arrested cell cycle progression at the phase G2-M, as it caused a significant elevation of the cell levels by 35.84% versus 12.91% accumulation of the control cells.
Were conducted propidium iodide (PI) staining and flow cytometry analysis.. In-depth discussions have been held in the Supplementary Data. […]
and were expressed as means ± SD. […]
HCT-116 cells were grown in six-well plates (each one contains 2 x 10^5 cells per well) containing 10% foetal bovine serum and incubated for 24 h at 37 °C and 5% CO2. The medium was replaced with (DMSO 1% v/v) containing the 9.3 µM of compound 6, then incubated for 48 h, collected and washed with cold phosphate buffered saline (PBS). After fixation of the collected cells with ice-cold […] ethanol (70%), the cells were rinsed with PBS then stained with the DNA fluorochrome PI, kept for 15 min at 37 °C. Then samples were analyzed with a FACS Caliber flow cytometer. […]

HCT-116 cells [3] = test: Annexin-V/propidium iodide apoptosis assay; assay type: cell-based; details: HCT-116, 9.3 µM of compound 6, 48 h
Method: Both extrinsic and intrinsic apoptosis induced by compound 6 in HCT-116 cells was assayed through Annexin-V/propidium iodide staining assay. Marked induction of both early and late apoptosis was observed upon treating HCT-116 cells with 6. […]
Apoptotic activity of compound 6 was evaluated using Annexin V-FITC/PI apoptosis detection kit.
HCT-116 cells ([…]) were seeded and incubated with compound 6 for 48 h, trypsinized, collected and washed with phosphate-buffered saline (PBS) several times; […] cells were stained with […]
Annexin V fluorescein isothiocyanate (FITC) and counterstained with propidium iodide (PI) for 15 min at 37 °C in the dark using the apoptosis detection kit (BD Biosciences, San Jose, CA) according to the manufacturer's protocol. Then, Annexin V-FITC and PI binding were analyzed by a FACS […]
Crystal structure of VEGFR-2 [PDB ID: 2OH4, resolution: 2.07 Å] was obtained from Protein Data Bank. The docking investigation was accomplished using MOE 2014 software. At first, the crystal structure of VEGFR-2 was prepared by removing water molecules. Only one chain was retained beside the co-crystallized ligand. Then, the selected chain was protonated and subjected to minimization of energy process. Next, the active site of the target protein was defined.
Structures of the synthesized compounds and sorafenib (as reference standard) were drawn using ChemBioDraw Ultra 14.0 and saved as MDL-SD format. Such file was opened using MOE to display the 3D structures which were protonated and subjected to energy minimization. Formerly, validation of the docking process was performed by docking the co-crystallized ligand against the isolated pocket of active site. The produced RMSD value indicated the validity of process. Finally, docking of the tested compounds was done through the dock option inserted in compute window.
For each docked molecule, 30 docked poses were produced using ASE for scoring function and force field for refinement. The results of the docking process were then visualized using Discovery […]
ADMET descriptors (absorption, distribution, metabolism, excretion and toxicity) of the compounds were determined using Discovery studio 4.0. At first, the CHARMM force field was applied then the tested compounds were prepared and minimized according to the preparation of small molecule protocol. Then ADMET descriptors protocol was applied to carry out these studies.
The toxicity parameters of the synthesized compounds were calculated using Discovery studio 4.0.
Sorafenib was used as a reference drug. At first, the CHARMM force field was applied then the […]

Sequence of Human VEGFR-2 (P35968 20-1356): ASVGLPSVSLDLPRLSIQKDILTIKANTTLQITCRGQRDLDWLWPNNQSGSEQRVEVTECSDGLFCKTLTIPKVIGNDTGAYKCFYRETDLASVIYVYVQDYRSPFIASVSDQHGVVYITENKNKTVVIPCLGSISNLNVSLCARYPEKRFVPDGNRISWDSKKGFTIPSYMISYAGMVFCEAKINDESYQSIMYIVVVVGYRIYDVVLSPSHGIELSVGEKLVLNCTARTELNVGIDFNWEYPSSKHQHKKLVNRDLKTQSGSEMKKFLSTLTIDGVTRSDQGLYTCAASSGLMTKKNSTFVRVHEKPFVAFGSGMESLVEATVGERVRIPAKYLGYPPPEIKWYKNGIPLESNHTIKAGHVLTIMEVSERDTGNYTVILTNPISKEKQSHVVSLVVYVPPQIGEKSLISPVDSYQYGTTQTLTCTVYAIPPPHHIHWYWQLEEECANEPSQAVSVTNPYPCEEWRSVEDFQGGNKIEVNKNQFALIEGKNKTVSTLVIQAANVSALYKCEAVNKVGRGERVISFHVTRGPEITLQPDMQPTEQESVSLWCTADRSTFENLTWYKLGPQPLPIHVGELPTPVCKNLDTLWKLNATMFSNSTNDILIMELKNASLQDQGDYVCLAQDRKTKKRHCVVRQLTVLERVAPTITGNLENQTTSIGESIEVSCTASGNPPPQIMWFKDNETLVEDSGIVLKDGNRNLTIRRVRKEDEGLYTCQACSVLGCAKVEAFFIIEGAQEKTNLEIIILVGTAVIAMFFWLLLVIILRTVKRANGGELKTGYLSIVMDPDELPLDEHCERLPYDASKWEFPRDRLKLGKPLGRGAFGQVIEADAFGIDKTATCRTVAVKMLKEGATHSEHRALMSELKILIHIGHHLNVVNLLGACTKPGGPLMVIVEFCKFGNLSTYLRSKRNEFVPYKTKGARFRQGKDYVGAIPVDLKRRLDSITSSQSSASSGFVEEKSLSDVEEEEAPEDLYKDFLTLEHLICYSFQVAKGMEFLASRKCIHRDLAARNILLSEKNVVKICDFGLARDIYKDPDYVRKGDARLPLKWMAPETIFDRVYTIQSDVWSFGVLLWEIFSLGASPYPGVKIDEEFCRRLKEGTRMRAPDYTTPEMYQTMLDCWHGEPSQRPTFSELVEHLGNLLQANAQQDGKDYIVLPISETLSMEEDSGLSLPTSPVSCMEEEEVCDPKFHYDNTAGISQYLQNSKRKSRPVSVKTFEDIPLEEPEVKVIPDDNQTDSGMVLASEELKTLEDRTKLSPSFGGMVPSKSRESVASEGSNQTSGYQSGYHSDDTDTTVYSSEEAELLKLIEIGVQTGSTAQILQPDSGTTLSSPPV

SMILES: C[C@@H]1C[C@H]2[C@@H]3CCC4=CC(=O)C=C[C@]4(C)[C@@]3(F)[C@@H](O)C[C@]2(C)[C@@]1(O)C(=O)CO [Dexamethasone, reference compound]
% Inhibition of TNF-α pg/mL [1]: 82.47% | % Inhibition of IL6 pg/mL (interleukin 6 (IL6)): 93.15%

SMILES: O=C(NN=Cc1ccccc1O)c1ccc(NC(=O)c2cccnc2)cc1 [Compound 7, N-{4-[2-(2-Hydroxybenzylidene)hydrazine-1-carbonyl]phenyl}nicotinamide]
IC50 (HCT-116): 15.9 ± 0.041 µM | IC50 (HepG-2): 10.2 ± 0.035 µM | % Inhibition of TNF-α pg/mL [1]: 60.54% | % Inhibition of IL6 pg/mL (interleukin 6 (IL6)): 52.75% | IC50 (Human VEGFR-2): 0.129 ± 0.00832 µM

SMILES: C/C(=N\Nc1ccccc1)c1ccc(NC(=O)c2cccnc2)cc1 [II]
IC50 (VEGFR-2): 0.0231 µM

SMILES: O=C(NN=Cc1ccc(Cl)cc1)c1ccc(NC(=O)c2cccnc2)cc1 [Compound 6, N-{4-[2-(4-Chlorobenzylidene)hydrazine-1-carbonyl]phenyl}nicotinamide]
IC50 (HCT-116): 9.3 ± 0.02 µM | IC50 (HepG-2): 7.8 ± 0.025 µM | % G0-G1 (HCT-116 cells [2]): 36.71% | % G2-M (HCT-116 cells [2]): 35.84% | % Pre-G1 (HCT-116 cells [2]): 16.93% | % S (HCT-116 cells [2]): 27.45% | Apoptosis Early (HCT-116 cells [3]): 5.78% | Apoptosis Late (HCT-116 cells [3]): 9.75% | Apoptosis Total (HCT-116 cells [3]): 16.93 | Necrosis (HCT-116 cells [3]): 1.40% | % Inhibition of TNF-α pg/mL [1]: 66.42% | % Inhibition of IL6 pg/mL (interleukin 6 (IL6)): 57.34% | IC50 (Human VEGFR-2): 0.0608 ± 0.00381 µM

Now from value to compound, other results behind:

IC50 (Human VEGFR-2): 0.23 ± 0.0102 µM
SMILES: O=C(NN=Cc1c[nH]c2ccccc12)c1ccc(NC(=O)c2cccnc2)cc1 [Compound 8, N-{4-[2-((1H-Indol-3-yl)methylene)hydrazine-1-carbonyl]phenyl}nicotinamide]
IC50 (HCT-116): 20.5 ± 0.052 µM | IC50 (HepG-2): 16.03 ± 0.051 µM

IC50 (Human VEGFR-2): 0.0636 ± 0.00331 µM
SMILES: CC(=NNC(N)=O)c1ccc(NC(=O)c2cccnc2)cc1 [Compound 10, N-{4-[1-(2-Carbamoylhydrazineylidene)ethyl]phenyl}nicotinamide]
IC50 (HCT-116): 24.2 ± 0.06 µM | IC50 (HepG-2): 17.6 ± 0.048 µM
